Source: patent US5981517A, “Androstene derivatives” (priority 1997, dated 1999)

How the values were obtained:
[1] = test system: forearm of a human volunteer; test: Further human vasoconstriction testing, Method 2; assay type: in vivo; design: key: +: "positive" (pallor could be observed); -: "negative" (pallor could not be detected)
Method: The mixtures, in 20 μL amounts, were applied to circular patches (1/4 inch diameter). The patches were applied to the forearm of a human volunteer, and covered with a water impervious film for 3 hr. Vasoconstriction activity was judged by the appearance of pallor at various time points after the patches were removed. Tests were performed on the same person and the results were obtained from 2-4 observations.
In TABLE XIV above, "-" means a negative result was obtained. In other tables herein, "-" means not tested.
In TABLE XIV above, the results of a simpler method of judging vasoconstriction activity was used in which only "positive" (pallor could be observed) or "negative" (pallor could not be detected) results were recorded.

physchem = assay type: physicochemical
Method: (§1) A Whatman C-18 column (4.6 mm×108 mm) was connected to a Spectra-Physics component system consisting of a SP 8810 precision isocratic pump, Rheodyne 7125 injector (20 μL injection volume), SP 8450 UV/VIS variable wavelength detector (230 nm), and SP 4290 integrator. The system was operated at ambient temperature. The mobile phase consisted of acetonitrile, acetic acid and water (60:0.1:40). At a flow rate of 1.0 mL/minute, the retention times for the test compounds were 4.74 minutes for Compound A, 5.84 minutes for Compound B, 6.93 minutes for Compound C, and 5.72 minutes for Compound D.
(§2) HPLC peak area and peak height were used as a measure of the concentration of the test compounds and plotted against time to evaluate the disappearance rates of the compounds. The stability was determined by measuring the pseudo-first order rate constant (kobs in min^-1) or half-life (t1/2 in min) of disappearance of the test compound in buffer. […].
The stabilities of test compounds A, B, C, and D, were tested in buffer solutions in the pH range of 4.0 to 9.0. A 0.1 mL portion of each compound at a concentration of 1 mM was mixed with 10 mL phosphate buffer (made by combining 0.05 M of NaH2 PO4 and 0.05 M of Na2 HPO4 with 0.05 M of NaCl) to give a final concentration of 0.01 mM. The mixtures were incubated at 37° C., and samples were taken and injected in the HPLC system at appropriate time intervals. pH profiles of each test compound are shown in TABLE III below. […]

[2] = Stability in liver homogenate; assay type: in vitro ADME, rat; details: rat, liver homogenate
Method: as §1, §2
(§3) A 0.2 mL aliquot of stock solution (1 mM) of each of the test compounds A, B, C, and D, was added to 2 mL of each biological media (whole heparinized rat blood, 20% rat liver homogenate, and 6-volume diluted lung homogenate in isotonic buffer of pH 7.40 made by combining 0.05 M of Na2 HPO4 and 0.05 M of NaH2 PO4 with 0.05 M of NaCl), which was kept in a 37° C. water bath, to obtain a final concentration of 0.1 mM in each biological medium. Samples of 0.1 mL were taken at appropriate time intervals for 2 hours (at 0, 3, 5, 10, 20, 40, 60, 90 and 120 minutes) and mixed with 0.2 mL of acetonitrile containing 5% DMSO. Each mixture was centrifuged and the supernatant was injected in the HPLC.

[3] = test system: forearm of a human volunteer; test: Human vasoconstriction test; assay type: in vivo; design: key: 0 = normal skin, 4 = very intense pallor; details: 10 mM
Method: Test compounds (10 mM) were dissolved in ethanol/propylene glycol (9/1) solution, and 50 μL of the mixtures were applied to circular patches, 8 mm in diameter. After ethanol evaporation, the patches were applied to the forearm of a human volunteer, and covered with a water impervious film for 3 hours. The intensity of vasoconstriction was judged 1, 8, 17 and 24 hours after the patches were removed.
The grading scale for the vasoconstriction activity was as follows: 0, normal skin; 1, slight pallor of indistinct outline; 2, pallor with at least two corners outlined; 3, even pallor with a clear outline of the application sites; 4, very intense pallor.

[4] = Stability in lung homogenate; assay type: in vitro ADME; details: rat, lung homogenate
Method: as §1, §2, §3

Stability in rat blood = assay type: in vitro ADME; details: rat, blood
Method: as §1, §2, §3

Stability in rat plasma = assay type: in vitro ADME; details: rat, plasma
Method: (§4) A Waters NOVA-PAK phenyl column was connected to a Spectra-Physics component system consisting of a SP 8810 precision isocratic pump, a Rheodyne 7125 injector (injection volume 20 μL), an SP 8450 UV/VIS variable wavelength detector (operated at 254 nm) and a SP 4270 integrator. […]. The retention times of compound of the invention J and its metabolities L and M were 8.64, 2.70 and 2.45 minutes, respectively. The retention times of compound of the invention I and its metabolites N and 0 were 5.84, 2.70 and 1.81 minutes, respectively. The retention time of cortienic acid was 1.00 minute.
(§5) Freshly collected human or rat plasma was used. An aliquot of 10 mM test compound in ethanol solution was added to prewarmed (37° C.) plasma to yield a final concentration of 100 μM. At appropriate time intervals, samples (0.1 mL) were removed and mixed with 0.2 mL of 5% dimethylsulfoxide/acetonitrile solution. Mixtures were centrifuged and supernatants were analyzed by HPLC. The pseudo-first order rate constant of the disappearance of compound in the biological media was determined by linear regression analysis from the plot of log peak area and peak height versus time.
(§6) Stability was evaluated by the pseudo first-order rate constant (k, hr^-1) and half-life (t1/2, hr) of the disappearance of the test compound in the media.

[5] = Stability in human plasma; assay type: in vitro ADME; details: human, plasma
Method: as §4, §5, §6

[6] = aqueous phosphate buffer, pH 4.5
[7] = aqueous phosphate buffer, pH 6.56
[8] = aqueous phosphate buffer, pH 7.4
[9] = aqueous phosphate buffer, pH 8.08

SMILES: CCCCC(=O)O[C@]1(C(=O)CO)[C@@H](C)C[C@H]2[C@@H]3CCC4=CC(=O)C=C[C@]4(C)[C@@]3(F)[C@@H](O)C[C@@]21C [Betamethasone 17-valerate, reference compound]
- Vasoconstriction activity ([1]; 4 Hours, 0.01 mM): -
- Vasoconstriction activity ([1]; 4 Hours, 0.05 mM): -
- Vasoconstriction activity ([1]; 4 Hours, 0.1 mM): -
- Vasoconstriction activity ([1]; 4 Hours, 0.5 mM): -
- Vasoconstriction activity ([1]; 4 Hours, 1 mM): +
- Vasoconstriction activity ([1]; 4 Hours, 5 mM): +
- Vasoconstriction activity ([1]; 8 Hours, 0.01 mM): -
- Vasoconstriction activity ([1]; 8 Hours, 0.05 mM): -
- Vasoconstriction activity ([1]; 8 Hours, 0.1 mM): -
- Vasoconstriction activity ([1]; 8 Hours, 0.5 mM): +
- Vasoconstriction activity ([1]; 8 Hours, 1 mM): +
- Vasoconstriction activity ([1]; 8 Hours, 5 mM): +
- Vasoconstriction activity ([1]; 10-22 hours, 0.01 mM): -
- Vasoconstriction activity ([1]; 10-22 hours, 0.05 mM): -
- Vasoconstriction activity ([1]; 10-22 hours, 0.1 mM): -
- Vasoconstriction activity ([1]; 10-22 hours, 0.5 mM): +
- Vasoconstriction activity ([1]; 10-22 hours, 1 mM): +
- Vasoconstriction activity ([1]; 10-22 hours, 5 mM): +
- Vasoconstriction activity ([1]; 24 Hours, 0.01 mM): -
- Vasoconstriction activity ([1]; 24 Hours, 0.05 mM): -
- Vasoconstriction activity ([1]; 24 Hours, 0.1 mM): -
- Vasoconstriction activity ([1]; 24 Hours, 0.5 mM): -
- Vasoconstriction activity ([1]; 24 Hours, 1 mM): +
- Vasoconstriction activity ([1]; 24 Hours, 5 mM): +

SMILES: COC(=O)[C@@]1(OC(=O)C(Cl)Cl)CC[C@H]2[C@@H]3CCC4=CC(=O)C=C[C@]4(C)[C@H]3[C@@H](O)C[C@@]21C [Compound A, Methyl 17α-dichloroacetoxy-11β-hydroxyandrosta-1,4-dien-3-one-17β-carboxylate]
- half-life (physchem; [6]): > 48 h
- half-life (physchem; [7]): 19.1 h
- half-life (physchem; [8]): 3.37 h
- half-life (physchem; [9]): 0.35 h
- half-life (physchem; aqueous phosphate buffer, pH 9): 0.0708 h
- half-life (physchem; buffer, pH 7.4): 3.37 h
- half-life at 100 µM [2]: 0.0617 h
- Vasoconstriction activity ([3]; 1 hour after patch removal): 2
- Vasoconstriction activity ([3]; 8 hours after patch removal): 4
- Vasoconstriction activity ([3]; 17 hours after patch removal): 4
- Vasoconstriction activity ([3]; 24 hours after patch removal): 4
- half-life at 100 µM [4]: 0.718 h
- half-life at 100 µM (Stability in rat blood): 0.448 h

SMILES: CC(C)OC(=O)[C@@]1(OC(=O)C(Cl)Cl)CC[C@H]2[C@@H]3CCC4=CC(=O)C=C[C@]4(C)[C@H]3[C@@H](O)C[C@@]21C [Compound C, Isopropyl 17α-dichloroacetoxy-11β-hydroxyandrosta-1,4-dien-3-one-17β-carboxylate]
- half-life (physchem; [6]): > 48 h
- half-life (physchem; [7]): 11.3 h
- half-life (physchem; [8]): 16.2 h
- half-life (physchem; [9]): 2.08 h
- half-life (physchem; aqueous phosphate buffer, pH 9): 0.27 h
- half-life (physchem; buffer, pH 7.4): 11 h
- half-life at 100 µM [2]: 0.488 h
- Vasoconstriction activity ([3]; 1 hour after patch removal): 3
- Vasoconstriction activity ([3]; 8 hours after patch removal): 4
- Vasoconstriction activity ([3]; 17 hours after patch removal): 3
- Vasoconstriction activity ([3]; 24 hours after patch removal): 2
- half-life at 100 µM [4]: 2.84 h
- half-life at 100 µM (Stability in rat blood): 1.78 h

SMILES: C[C@]12C=CC(=O)C=C1CC[C@@H]1[C@@H]2[C@@H](O)C[C@@]2(C)[C@H]1CC[C@]2(OC(=O)C(Cl)Cl)C(=O)OCCl [Compound D, Chloromethyl 17α-dichloroacetoxy-11β-hydroxyandrosta-1,4-dien-3-one-17β-carboxylate]
- half-life (physchem; [6]): 14 h
- half-life (physchem; [7]): 0.822 h
- half-life (physchem; [8]): 0.232 h
- half-life (physchem; [9]): 0.0483 h
- half-life (physchem; aqueous phosphate buffer, pH 9): 0.0178 h
- half-life (physchem; buffer, pH 7.4): 0.232 h
- half-life at 100 µM [2]: 0.127 h
- Vasoconstriction activity ([3]; 1 hour after patch removal): 3
- Vasoconstriction activity ([3]; 8 hours after patch removal): 4
- Vasoconstriction activity ([3]; 17 hours after patch removal): 3
- Vasoconstriction activity ([3]; 24 hours after patch removal): 2
- half-life at 100 µM [4]: 0.873 h
- half-life at 100 µM (Stability in rat blood): 0.193 h

SMILES: COC(=O)[C@@]1(OC(=O)C(Cl)Cl)[C@H](C)C[C@H]2[C@@H]3CCC4=CC(=O)C=C[C@]4(C)[C@@]3(F)[C@@H](O)C[C@@]21C [Compound I, methyl 17α-dichloroacetoxy-9α-fluoro-11β-hydroxy-16α-methylandrosta-1,4-dien-3-one-17β-carboxylate]
- half-life at 100 µM (Stability in rat plasma): 9.88 h
- Vasoconstriction activity ([1]; 4 Hours, 0.01 mM): -
- Vasoconstriction activity ([1]; 4 Hours, 0.05 mM): -
- Vasoconstriction activity ([1]; 4 Hours, 0.1 mM): +
- Vasoconstriction activity ([1]; 4 Hours, 0.5 mM): +
- Vasoconstriction activity ([1]; 4 Hours, 1 mM): +
- Vasoconstriction activity ([1]; 4 Hours, 5 mM): +
- Vasoconstriction activity ([1]; 8 Hours, 0.01 mM): -
- Vasoconstriction activity ([1]; 8 Hours, 0.05 mM): +
- Vasoconstriction activity ([1]; 8 Hours, 0.1 mM): +
- Vasoconstriction activity ([1]; 8 Hours, 0.5 mM): +
- Vasoconstriction activity ([1]; 8 Hours, 1 mM): +
- Vasoconstriction activity ([1]; 8 Hours, 5 mM): +
- Vasoconstriction activity ([1]; 10-22 hours, 0.01 mM): -
- Vasoconstriction activity ([1]; 10-22 hours, 0.05 mM): -
- Vasoconstriction activity ([1]; 10-22 hours, 0.1 mM): +
- Vasoconstriction activity ([1]; 10-22 hours, 0.5 mM): +
- Vasoconstriction activity ([1]; 10-22 hours, 1 mM): +
- Vasoconstriction activity ([1]; 10-22 hours, 5 mM): +
- Vasoconstriction activity ([1]; 24 Hours, 0.01 mM): -
- Vasoconstriction activity ([1]; 24 Hours, 0.05 mM): -
- Vasoconstriction activity ([1]; 24 Hours, 0.1 mM): +
- Vasoconstriction activity ([1]; 24 Hours, 0.5 mM): +
- Vasoconstriction activity ([1]; 24 Hours, 1 mM): +
- Vasoconstriction activity ([1]; 24 Hours, 5 mM): +
- half-life at 100 µM [5]: 10.9 h

SMILES: CCOC(=O)[C@@]1(OC(=O)C(Cl)Cl)[C@H](C)C[C@H]2[C@@H]3CCC4=CC(=O)C=C[C@]4(C)[C@@]3(F)[C@@H](O)C[C@@]21C [J, ethyl 17α-dichloroacetoxy-9α-fluoro-11β-hydroxy-16α-methylandrosta-1,4-dien-3-one-17β-carboxylate]
- half-life at 100 µM (Stability in rat plasma): 40.7 h
- Vasoconstriction activity ([1]; 4 Hours, 0.01 mM): -
- Vasoconstriction activity ([1]; 4 Hours, 0.05 mM): -
- Vasoconstriction activity ([1]; 4 Hours, 0.1 mM): -
- Vasoconstriction activity ([1]; 4 Hours, 0.5 mM): -
- Vasoconstriction activity ([1]; 4 Hours, 1 mM): +
- Vasoconstriction activity ([1]; 4 Hours, 5 mM): +
- Vasoconstriction activity ([1]; 8 Hours, 0.01 mM): -
- Vasoconstriction activity ([1]; 8 Hours, 0.05 mM): -
- Vasoconstriction activity ([1]; 8 Hours, 0.1 mM): -
- Vasoconstriction activity ([1]; 8 Hours, 0.5 mM): +
- Vasoconstriction activity ([1]; 8 Hours, 1 mM): +
- Vasoconstriction activity ([1]; 8 Hours, 5 mM): +
- Vasoconstriction activity ([1]; 10-22 hours, 0.01 mM): -
- Vasoconstriction activity ([1]; 10-22 hours, 0.05 mM): -
- Vasoconstriction activity ([1]; 10-22 hours, 0.1 mM): -
- Vasoconstriction activity ([1]; 10-22 hours, 0.5 mM): +
- Vasoconstriction activity ([1]; 10-22 hours, 1 mM): +
- Vasoconstriction activity ([1]; 10-22 hours, 5 mM): +
- Vasoconstriction activity ([1]; 24 Hours, 0.01 mM): -
- Vasoconstriction activity ([1]; 24 Hours, 0.05 mM): -
- Vasoconstriction activity ([1]; 24 Hours, 0.1 mM): -
- Vasoconstriction activity ([1]; 24 Hours, 0.5 mM): +
- Vasoconstriction activity ([1]; 24 Hours, 1 mM): +
- Vasoconstriction activity ([1]; 24 Hours, 5 mM): +
- half-life at 100 µM [5]: 40.1 h
